Results on 4 molecules are retold here after article PMC9000887, “Novel 1,2,3-Triazole-Coumarin Hybrid Glycosides and Their Tetrazolyl Analogues: Design, Anticancer Evaluation and Molecular Docking Targeting EGFR, VEGFR-2 and CDK-2” (Molecules, 2022).

Like-named read-outs stand apart in the source and are kept apart here.

The test system of data set [1] is human melanoma (Mel-501) cancer cell line. Briefly: MTT cytotoxicity assay, Mel-501. Particulars: for IC50: read-out: IC50 (Mean ± SEM) Mel-501; for inhibition at 100 µM: read-out: % Inhibition Mel-501. On the technique in general: Tetrazolium assays rely on reduction of a dye to a coloured formazan, in cell work by metabolically active cells.
Experimental: (§2) After 48 h incubation, the medium was aspirated and then 40 μL MTT salt (2.5 mg/mL) was added for a further 4 h. […] Doxorubicin was used as the positive control and 0.5% DMSO was used as the negative control.
In data set [2] the test system is human prostate (PC-3) cancer cell line. The experiment in a line: MTT cytotoxicity assay, PC-3. Particulars: for inhibition at 100 µM / IC50: Homo sapiens; for inhibition at 100 µM: read-out: % Inhibition PC-3; for IC50: read-out: IC50 (Mean ± SEM) PC-3.
Experimental: as §2
Data set [3] relates to human melanoma (A-375) cancer cell line. The experiment in a line: MTT cytotoxicity assay, A-375. The following applies: for inhibition at 100 µM / IC50: Homo sapiens; for inhibition at 100 µM: A-375, read-out: % Inhibition A-375; for IC50: A-375, read-out: IC50 (Mean ± SEM) A-375.
Experimental: as §2
In data set [4] the test system is human colon (Caco-2) cancer cell line. Particulars: Caco-2, 100 µM.
Experimental: as §2
The test system of data set [5] is human pancreatic (Paca-2) cancer cell line. Briefly: MTT cytotoxicity assay, Paca-2. Particulars: for inhibition at 100 µM: PaCa-2, read-out: % Inhibition Paca-2.
Experimental: as §2
Data set [6] relates to Paca-2 cells. The experiment in a line: Apoptosis detection, FITC Annexin V/PI flow cytometry. The following applies: Paca-2, 24 h at IC50 (10.7 μM); DMSO control 0.28%. It is filed as cell-based, human. How it is done:
(§1) Apoptosis investigation and cell cycle analysis were elucidated by flow cytometry. Paca-2 cells were seeded at 8 × 10^4 and incubated at 37 °C in 5% CO2 overnight. […] For cell cycle analysis, cell pellets were fixed with 70% ethanol on ice for 15 min and collected again. The pellets were incubated with propidium iodide (PI) staining solution at room temperature for 1 h and analysed by a Gallios flow cytometer (Beckman Coulter, Brea, CA, USA). Apoptosis detection was carried out by FITC AnnexinV/PI commercial kit (Becton Dickenson, Franklin Lakes, NJ, USA) following the manufacturer’s protocol. The samples were analysed by fluorescence-activated cell sorting (FACS) with a Gallios flow cytometer (Beckman Coulter, Brea, CA, USA) within 1 h after staining. Data were analysed using Kaluza v 1.2 (Beckman Coulter, Brea, CA, USA).
On the technique in general: In flow cytometry, cells or beads pass a laser one at a time.

Data set [7] has as its system human colon (Caco-2) cancer cell line. Briefly: MTT cytotoxicity assay, Caco-2. The following applies: for % Inhibition Caco-2: Caco-2, at 100 µM, MTT, (-) No activity detected; for IC50: read-out: IC50 (Mean ± SEM) Caco-2, Caco-2, MTT, three independent determinations.
Experimental: as §2
For a further data set, the target named is VEGFR-2 (Homo sapiens, UniProt P35968). Briefly: biochemical. How it is done:
The cells were harvested, and the homogenates were prepared in saline using a tight pestle homogenizer until complete cell disruption. The kit used a double-antibody sandwich enzyme-linked immunosorbent assay (ELISA) to determine the level of human VEGFR-2 in samples. A monoclonal antibody for VEGFR-2 was pre-coated onto 96-well plates. The test samples were added to the wells and a biotinylated detection polyclonal antibody from goat specific for VEGFR-2 was added, subsequently followed by washing with PBS buffer. Avidin–Biotin–Peroxidase complex was added, and the unbound conjugates were washed away with PBS buffer. HRP substrate TMB was used to visualize HRP enzymatic reaction. TMB was catalysed by HRP to produce a blue colour product that changed into yellow after the addition of acidic stop solution. The density of yellow colour is proportional to the human VEGFR-2 amount of the sample captured in the plate. The chroma of colour and the concentration of the human VEGFR-2 of the samples were positively correlated and the optical density was determined at 450 nm. The level of human VEGFR-2 in samples was calculated (pg/mL) as duplicate determinations from the standard curve. The % inhibition was calculated in comparison to control untreated cells.

The next data set addresses CDK-2/cyclin A2 (Homo sapiens, UniProt P24941). Briefly: In vitro kinase inhibitory assessment, CDK-2/cyclin A2 (ELISA). It is filed as biochemical. Particulars: mean of three values; read-out: IC50 (Mean ± SEM) CDK-2/Cyclin A2. As to the method:
Assay of CDK-2/cyclin A2 was achieved through ELISA using an affinity tag labelled capture antibody. Adding the samples and the standard to the wells was carried out after the addition of the antibody mix. After the incubation period, the unrestrained substance was discarded and the wells were washed. The added TMB (3,3′,5,5′-tetramethylbenzidine) substrate was prompted by Horseradish peroxidase (HRP) and blue coloration appeared. This reaction was stopped with the addition of stop solution to complete the change in colour from blue to yellow. The created signals were equivalent to the quantity of bound analyte and Robonik P2000 ELISA reader was used to record the intensity at a certain wavelength (450 nm). The concentrations of the screened compounds were calculated through the plotted curve.

A further data set concerns Caspase-7. The experiment in a line: Caspase-7 protein level ELISA in Paca-2. It is filed as cell-based, human. Particulars: Paca-2, 24 h at IC50 (10.7 μM). As to the method:
The micro-ELISA plate provided in this kit was pre-coated with a Caspase-7-specific antibody. A biotinylated Caspase-7 antibody and Avidin–horseradish peroxidase (HRP) conjugate was added. The excess components were removed. The substrate solution was added. Wells containing Caspase-7, biotinylated detection antibody, and Avidin-HRP conjugate appeared blue in colour. The colour turned yellow following the addition of sulphuric acid solution. The optical density (OD) was measured at a wavelength of 450 ± 2 nm.
A general note: ELISA stands for enzyme-linked immunosorbent assay.

Another data set has as its system Caspase-3. The experiment in a line: Caspase-3 protein level ELISA in Paca-2. The following applies: Paca-2, 24 h at IC50 (10.7 μM). It is filed as cell-based, human. The source says: The precoated micro-ELISA plate with an antibody specific to Caspase-3 was applied using the Human Caspase-3 ELISA Kit from Invitrogen INC. Catalog # KHO1091 (96 tests) (542 Flynn Road, Camarillo, CA, USA) according to the manufacturer’s instructions.

Another data set addresses EGFR (Homo sapiens, UniProt P00533). Briefly: In vitro kinase inhibitory assessment, EGFR (Kinase-Glo luminescence). It is filed as biochemical. Particulars: mean of three values; read-out: IC50 (Mean ± SEM) EGFR.
Data set [8] has as its system Paca-2 cells. The experiment in a line: Cell cycle analysis by flow cytometry (PI staining). It is filed as cell-based, human. Particulars: Paca-2, 24 h at IC50 (10.7 μM). How it is done:
as §1

A further data set relates to PD-1. Briefly: PD-1 protein level ELISA in Paca-2. It is filed as cell-based, human. Particulars: Paca-2, 24 h at IC50 (10.7 μM); untreated control 275.6 Pg/mL. How it is done:
Samples or standards were added to the wells Human PD-1 eliza kit (ab252360 Human PD-1, Abcam, Cambridge, MA, USA), followed by the antibody mix. After incubation, the wells were washed to remove unbound material. TMB Development Solution was added and during incubation was catalysed by HRP, generating blue coloration. This reaction was then stopped by the addition of Stop Solution, completing any colour change from blue to yellow. The optical density (OD) was measured at a wavelength of 450 ± 2 nm.

The test system of another data set is Cytochrome-c. The experiment in a line: Cytochrome-c ELISA in Paca-2. It is filed as cell-based, human. Particulars: Paca-2, 24 h at IC50 (10.7 μM); control 0.123 ng/mL. How it is done: Cytochrome-c specific antibodies were precoated onto 96-well plates. Cytochrome-c were analysed by enzyme-linked immunosorbent assays (ELISAs) using commercial kits (ab119521; Abcam, Cambridge, MA, USA). The optimal dilutions were determined and ELISAs were performed according to the manufacturer’s instructions.

Where [9] appears, read: Homo sapiens, PaCa-2, read-out: IC50 (Mean ± SEM) Paca-2.

Sequence of EGFR (P00533 25-1210): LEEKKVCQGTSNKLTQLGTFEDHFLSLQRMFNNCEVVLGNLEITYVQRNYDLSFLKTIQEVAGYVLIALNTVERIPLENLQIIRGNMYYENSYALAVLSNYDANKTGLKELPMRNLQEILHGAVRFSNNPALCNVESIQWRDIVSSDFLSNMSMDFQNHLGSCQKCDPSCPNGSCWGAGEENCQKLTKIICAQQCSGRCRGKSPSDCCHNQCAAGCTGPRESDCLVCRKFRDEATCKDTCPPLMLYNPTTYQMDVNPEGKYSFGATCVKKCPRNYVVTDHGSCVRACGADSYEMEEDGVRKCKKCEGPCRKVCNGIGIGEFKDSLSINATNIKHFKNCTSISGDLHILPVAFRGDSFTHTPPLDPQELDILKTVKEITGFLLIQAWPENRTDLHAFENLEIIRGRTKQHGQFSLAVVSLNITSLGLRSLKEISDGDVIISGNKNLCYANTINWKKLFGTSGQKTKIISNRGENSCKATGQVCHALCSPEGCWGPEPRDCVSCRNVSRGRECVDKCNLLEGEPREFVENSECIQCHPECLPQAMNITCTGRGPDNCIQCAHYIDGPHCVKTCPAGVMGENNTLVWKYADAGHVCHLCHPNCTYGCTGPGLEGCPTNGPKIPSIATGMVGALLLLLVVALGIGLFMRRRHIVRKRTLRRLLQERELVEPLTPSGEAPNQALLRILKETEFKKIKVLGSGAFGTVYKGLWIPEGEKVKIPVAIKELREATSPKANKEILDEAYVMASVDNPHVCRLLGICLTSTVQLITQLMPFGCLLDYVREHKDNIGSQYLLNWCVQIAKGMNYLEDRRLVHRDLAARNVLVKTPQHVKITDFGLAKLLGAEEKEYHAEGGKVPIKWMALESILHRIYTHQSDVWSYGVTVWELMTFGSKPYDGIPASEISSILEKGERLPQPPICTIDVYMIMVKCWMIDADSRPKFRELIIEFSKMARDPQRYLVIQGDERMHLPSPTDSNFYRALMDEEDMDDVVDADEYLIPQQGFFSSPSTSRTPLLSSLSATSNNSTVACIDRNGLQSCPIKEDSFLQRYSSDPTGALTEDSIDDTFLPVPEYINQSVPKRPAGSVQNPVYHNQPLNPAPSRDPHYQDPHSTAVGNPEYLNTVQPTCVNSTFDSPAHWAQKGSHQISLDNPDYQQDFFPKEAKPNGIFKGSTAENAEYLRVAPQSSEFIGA
Sequence of VEGFR-2 (P35968 20-1356): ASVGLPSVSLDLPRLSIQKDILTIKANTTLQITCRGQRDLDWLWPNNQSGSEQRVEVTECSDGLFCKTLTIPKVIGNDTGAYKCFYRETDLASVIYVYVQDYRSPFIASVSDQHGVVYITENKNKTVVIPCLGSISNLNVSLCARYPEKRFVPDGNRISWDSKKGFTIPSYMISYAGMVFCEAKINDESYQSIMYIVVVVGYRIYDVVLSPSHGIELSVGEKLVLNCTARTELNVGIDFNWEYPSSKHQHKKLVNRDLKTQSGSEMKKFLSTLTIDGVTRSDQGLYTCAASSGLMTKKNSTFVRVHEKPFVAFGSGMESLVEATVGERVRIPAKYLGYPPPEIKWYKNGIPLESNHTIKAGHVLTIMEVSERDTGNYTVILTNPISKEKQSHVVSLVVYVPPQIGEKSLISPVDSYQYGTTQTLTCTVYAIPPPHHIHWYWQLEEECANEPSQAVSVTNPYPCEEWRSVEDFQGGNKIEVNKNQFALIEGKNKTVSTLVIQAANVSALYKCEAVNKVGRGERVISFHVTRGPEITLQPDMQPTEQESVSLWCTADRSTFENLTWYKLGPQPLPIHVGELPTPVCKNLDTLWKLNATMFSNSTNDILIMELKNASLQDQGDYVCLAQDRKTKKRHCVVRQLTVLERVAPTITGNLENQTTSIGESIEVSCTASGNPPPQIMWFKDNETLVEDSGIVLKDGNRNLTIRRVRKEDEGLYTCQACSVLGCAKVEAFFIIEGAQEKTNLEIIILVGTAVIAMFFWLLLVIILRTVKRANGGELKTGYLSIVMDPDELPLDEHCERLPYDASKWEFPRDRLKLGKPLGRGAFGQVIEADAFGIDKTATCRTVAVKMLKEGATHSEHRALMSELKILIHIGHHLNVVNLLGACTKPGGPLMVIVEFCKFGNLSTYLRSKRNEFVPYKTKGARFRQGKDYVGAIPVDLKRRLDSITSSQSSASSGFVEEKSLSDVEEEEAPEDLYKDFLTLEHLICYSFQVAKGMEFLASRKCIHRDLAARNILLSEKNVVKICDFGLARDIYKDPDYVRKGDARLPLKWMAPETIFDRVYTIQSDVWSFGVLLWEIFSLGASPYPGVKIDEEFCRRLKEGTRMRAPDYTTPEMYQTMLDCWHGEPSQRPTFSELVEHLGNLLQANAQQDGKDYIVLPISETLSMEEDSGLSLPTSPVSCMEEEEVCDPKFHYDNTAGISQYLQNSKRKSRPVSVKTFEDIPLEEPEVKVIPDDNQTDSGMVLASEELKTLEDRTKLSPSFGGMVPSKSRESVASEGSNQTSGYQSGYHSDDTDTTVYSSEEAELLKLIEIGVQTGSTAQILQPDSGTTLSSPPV

For the molecule “4-Phenyl-7-((1-(2,3,4-tri-O-acetyl-β-D-xylopyranosyl)-2H-tetrazol-5-yl)methoxy)-2H-chromen-2-one [Compound 6]”, the “% Inhibition Mel-501” value in [1] (Mel-501, at 100 µM, MTT) was 71%. For the same molecule, the IC50 in [1] (Mel-501, MTT, three independent determinations) is 80.4 ± 2.1 µM; in [5] (read-out: IC50 (Mean ± SEM) Paca-2, Paca-2, MTT, 100 to 0.78 μM, three independent determinations), 60 ± 1.4 µM. For the same molecule, the “% Inhibition PC-3” value in [2] (PC-3, at 100 µM, MTT) worked out at 9.1%. In addition, in data set [3] (A-375, at 100 µM, MTT), the “% Inhibition A-375” value was found to be 45.8%. For the same molecule, the “% Inhibition Caco-2” value in data set [4] is “-”. In addition, the “% Inhibition Paca-2” value in data set [5] (Paca-2, at 100 µM, MTT) is reported as 72.1%.
As to `O=c1cc(-c2ccccc2)c2ccc(OCc3nnn(CC(O)CO)n3)cc2o1` (stereo not drawn) [Compound 10, 7-((2-(2,3-Dihydroxypropyl)-2H-tetrazol-5-yl)methoxy)-4-phenyl-2H-chromen-2-one], the inhibition (usually how much of the control response was suppressed) at 100 µM is 95.8% in data set [1] (Homo sapiens), 99.2% in data set [2], 98.2% in data set [3] and 99.9% in data set [5] (Homo sapiens). Also, the IC50 amounted to 8.8 ± 0.2 µM in [1] (Homo sapiens); 25.4 ± 0.5 µM in data set [2]; 31.9 ± 0.7 µM in [7]; 0.86 ± 0.25 µM at VEGFR-2; 0.19 ± 0.05 µM on CDK-2/cyclin A2; 10.9 ± 0.1 µM in data set [3]. Further, the results for the IC50 (at EGFR; in data set [5] (setting [9])) were 0.09 ± 0.21 µM and 10.7 ± 0.4 µM, respectively. For the same molecule, the “late/secondary cellular apoptosis (PI / Annexin V-FITC, upper right quadrant)” value in the data set with Paca-2 cells [6] is given as 15.55%. Also, in data set [7], the “% Inhibition Caco-2” value was determined as 99.6%. Moreover, the “elevation of caspase-7 protein level” value in the data set with Caspase-7 (versus control) is listed as 4.3 fold. For the same molecule, the “caspase-7 protein level in treated cells” value in the data set on Caspase-7 (control 0.555 ng/mL) is on record as 2.363 ng/mL. Moreover, in the data set with Caspase-3 (versus control), the “upregulation of caspase-3 protein level” value amounted to 2.8 fold. Besides, in the data set with Caspase-3 (control 95.04 Pg/mL), the “caspase-3 protein level in treated cells” value was found to be 266.8 pg/mL. Besides, the “increase of percentage of the cells at S phase compared to the control” value in the data set with Paca-2 cells [8] is recorded as 1.3 folds. In addition, the “increase of pre-G1 phase cells percentage compared to the control” value in the data set on Paca-2 cells [8] came to 15.7 folds. Also, the “PD-1 level in treated cells” value with PD-1 came to 91.4 pg/mL. Also, the “cytochrome-c release into the cytosol of treated cells” value in the data set on Cytochrome-c was found to be 0.395 ng/mL.
Take `CC(=O)OC[C@H]1O[C@@H](n2cc(COc3ccc4c(-c5ccccc5)cc(=O)oc4c3)nn2)[C@H](OC(C)=O)[C@@H](OC(C)=O)[C@@H]1OC(C)=O` [Compound 13, 4-Phenyl-7-((1-(2,3,4,6-Tetra-O-acetyl-β-D-glucopyranosyl)-1H-1,2,3-triazol-4-yl)methoxy)-2H-chromen-2-one]: the melting point (in general, the temperature, or range, at which the solid turns liquid) lay in the range of 131 to 132 °C. Also, in data set [1] (Homo sapiens), the inhibition at 100 µM turned out to be 98.5% and the IC50 was determined as 16.7 ± 0.3 µM. In [2], the inhibition at 100 µM turned out to be 95.6% and the IC50 came out at 22.3 ± 0.6 µM. In addition, in data set [7], the “% Inhibition Caco-2” value was 99.6% and the IC50 is 40.5 ± 0.9 µM. This molecule also displayed an IC50 on VEGFR-2 of 45 ± 0.1 µM. Also, the IC50 on CDK-2/cyclin A2 is 0.5 ± 0.11 µM. Also, in data set [3], the inhibition at 100 µM was 96.9% and the IC50 was determined as 14.5 ± 0.2 µM. On EGFR, the IC50 stood at 66 ± 0.01 µM. Further, in [5] (Homo sapiens), the inhibition at 100 µM was determined as 97.6%. The IC50 in data set [5] (setting [9]) came out at 14.6 ± 1.1 µM.
In turn, `CC(=O)OC1COC(n2cc(COc3ccc4c(-c5ccccc5)cc(=O)oc4c3)nn2)C(OC(C)=O)C1OC(C)=O` [Compound 15, 4-Phenyl-7-((1-(2,3,4-tria-O-acetyl-β-D-xylopyranosyl)-1H-1,2,3-triazol-4-yl)methoxy)-2H-chromen-2-one] returned a melting point of 89 to 90 °C. In data set [1] (Homo sapiens), the inhibition at 100 µM amounted to 97.8% and the IC50 is 4.1 ± 0.3 µM. For the same molecule, in data set [2], the inhibition at 100 µM came to 98.2% and the IC50 is 12.5 ± 0.9 µM. For the same molecule, in [7], the “% Inhibition Caco-2” value is 99.3% and the IC50 was found to be 20.4 ± 0.6 µM. On VEGFR-2, this molecule came in with an IC50 of 40 ± 0.05 µM. Besides, the IC50 on CDK-2/cyclin A2 turned out to be 0.48 ± 0.15 µM. Moreover, in [3], the inhibition at 100 µM worked out at 94.7% and the IC50 was 9.9 ± 1 µM. Also, the IC50 at EGFR worked out at 53 ± 0.15 µM. Also, the inhibition at 100 µM in data set [5] (Homo sapiens) stood at 95%. Further, in data set [5] (setting [9]), the IC50 is 16.9 ± 0.9 µM.
